According to US8044073B2, “Aminobenzimidazoles and benzimidazoles as inhibitors of respiratory syncytial virus replication” (Tibotec Pharmaceuticals, priority 2003, dated 2011):
Read-outs that look alike come from different tables or passages of the source. Blank lines part the entries; values can stand above or below the compound they belong to.

Assays:
[1] = tested on: Respiratory Syncytial Virus; assay: In vitro screening for activity against RSV (tetrazolium-based colorimetric assay, protection against viral cytopathology); type: cell-based; conditions: for EC50: human respiratory syncytial virus
Outline: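 HeLa cells in Eagle's Basal Medium with 5% FCS and 20 mM Hepes, ~100 TCID50 RSV, five five-fold compound dilutions in triplicate with mock-infected row for cytotoxicity; 7 days at 37 °C, 5% CO2. MTT formazan read at 540 minus 690 nm; EC50 and CC50 from dose-response curves, SI = CC50/EC50.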

[2] = Table 6, numeric activity values, pEC50 (−log of EC50 in molar units), read-out: Activity (converted)
[3] = 168 h, Table 5a, RSV in HeLa cells, MTT, seven days after infection, pEC50 = -log of EC50 in molar units, read-out: Activity (converted)
[4] = 168 h, Table 3, RSV in HeLa cells, MTT, seven days after infection, pEC50 = -log of EC50 in molar units, read-out: Activity (converted)
[5] = 168 h, Table 1, RSV in HeLa cells, MTT, seven days after infection, pEC50 = -log of EC50 in molar units, read-out: Activity (converted)
[6] = 168 h, Table 5b, RSV in HeLa cells, MTT, seven days after infection, pEC50 = -log of EC50 in molar units, read-out: Activity (converted)
[7] = Table 6, numeric activity values, pEC50 (−log of EC50 in molar units)
[8] = Table 1, RSV in HeLa cells, MTT, seven days after infection, pEC50 = -log of EC50 in molar units
[9] = Table 5a, RSV in HeLa cells, MTT, seven days after infection, pEC50 = -log of EC50 in molar units

Compound: CC(=O)O.Cc1ccc(O)c(Cn2c(N)nc3ccc(CNc4ccccc4C)cc32)n1 [Compound 8, 2-[2-Amino-6-(o-tolylamino-methyl)-benzoimidazol-1-ylmethyl]-6-methyl-pyridin-3-ol acetic acid salt]
EC50 [1, 5]: 3.16 nM
melting point: 120 °C

Compound: Cc1cccc(N(CCN)Cc2ccc3nc(N)n(Cc4nc(C)ccc4O)c3c2)c1.Cl [Compound 131, 2-(2-amino-6-{[(2-amino-ethyl)-m-tolyl-amino]-methyl}-benzoimidazol-1-ylmethyl)-6-methyl-pyridin-3-ol HCl salt]
EC50 [1, 4]: 3.98 nM
melting point: 200 °C

Compound: Cc1ccc(CCCO)c(NCc2ccc3nc(N)n(Cc4nc(C)ccc4O)c3c2)c1 [Compound 90, 2-(2-amino-6-{[2-(3-hydroxy-propyl)-5-methyl-phenylamino]-methyl}-benzimidazol-1-ylmethyl)-6-methylpyridin-3-ol]
EC50 [1, 5]: 0.0316 nM
melting point: 248 °C

Compound: Cc1ccc(CCCO)c(NCc2ccc3nc(N)n(Cc4nc(C)ccc4OCc4ccccc4)c3c2)c1 [Compound 128]
EC50 ([1]; 168 h, table of compound 128 (scheme E), RSV in HeLa cells, MTT, seven days after infection, read-out: Activity category (converted)): 126 nM
melting point: 129 °C

Compound: Cc1cccc(N(CCO)Cc2ccc3nc(N)n(Cc4nc(C)ccc4O)c3c2)c1 [Compound 129, 2-(2-amino-6-{[(2-hydroxy-ethyl)-m-tolyl-amino]-methyl}-benzoimidazol-1-ylmethyl)-6-methyl-pyridin-3-ol]
EC50 [1, 4]: 0.501 nM
melting point: 210 °C

Compound: Cc1cccc(C(=O)Nc2ccc3c(c2)ncn3Cc2nc(C)ccc2O)c1 [Compound 242]
Activity [1, 7]: 4.2

Compound: Cc1ccc(O)c(Cn2c(N)nc3ccc(CNc4cc(Br)cc(C(F)(F)F)c4)cc32)n1 [Compound 37]
Activity [1, 8]: 7.7

Compound: Cc1ccc(O)c(Cn2c(N)nc3ccc(CNc4ccc(C(N)=O)cc4)cc32)n1 [Compound 85]
Activity [1, 8]: 8.4

Compound: Cc1ccc(NCc2ccc3nc(N)n(Cc4nc(C)ccc4O)c3c2)cc1 [Compound 67]
Activity [1, 8]: 7.3

Compound: Cc1ccc(OCCO)c(NCc2ccc3nc(N)n(Cc4nc(C)ccc4O)c3c2)c1 [Compound 91]
Activity [1, 8]: 10.5

Compound: Cc1ccc(O)c(Cn2c(N)nc3ccc(CNc4cccc(OC(F)(F)F)c4)cc32)n1 [Compound 4, 2-{2-Amino-6-[(3-trifluoromethoxyphenylamino)-methyl]-benzoimidazol-1-ylmethyl}-6-methyl-pyridin-3-ol]
EC50 [1, 5]: 2.51 nM
melting point: 156 °C

Compound: CNc1nc2ccc(CO)cc2n1Cc1nc(C)ccc1O [Compound 200]
Activity [1, 9]: 4.9

Compound: Cc1ccc(O)c(Cn2c(N)nc3ccc(CNc4ccc(C)c(F)c4)cc32)n1 [Compound 60]
Activity [1, 8]: 7.3

Compound: Cc1ccc(O)c(Cn2cnc3ccc(/C=C/C#N)cc32)n1 [Compound 189]
Activity ([1]; Table 4, RSV in HeLa cells, MTT, seven days after infection, pEC50 = -log of EC50 in molar units): 4.8

Compound: Cc1ccc(O)c(Cn2c(N)nc3ccc(CCC#N)cc32)n1 [Compound 198]
Activity [1, 9]: 6.8

Compound: Cc1ccc(O)c(Cn2cnc3cc(NC(=O)c4cccnc4)ccc32)n1 [Compound 279]
Activity [1, 7]: <4.0

Second part, led by results:

EC50 [1, 2]: > 100000 nM
melting point: 248 °C
Compound: Cc1ccc(O)c(Cn2cnc3cc(N)ccc32)n1 [Compound 259]

EC50 [1, 2]: > 100000 nM
melting point: > 250 °C
Compound: Cc1ccc(O)c(Cn2cnc3ccc(N)cc32)n1 [Compound 261]

melting point: 204 °C
Compound: CNc1nc2ccc(CN(CCO)c3cccc(C)c3)cc2n1Cc1nc(C)ccc1O [Compound 195, 2-(6-{[(2-hydroxy-ethyl)-m-tolyl-amino]-methyl}-2-methylamino-benzoimidazol-1-ylmethyl)-6-methyl-pyridin-3-ol]
EC50 [1, 3]: 15.8 nM

melting point: 120 °C
Compound: Cc1ccc(O)c(Cn2c(N)nc3ccc(CN(CCCCO)c4cccc(Br)c4)cc32)n1 [Compound 139, 2-(2-Amino-6-{[(3-bromo-phenyl)-(4-hydroxy-butyl)-amino]-methyl}-benzoimidazol-1-ylmethyl)-6-methyl-pyridin-3-ol]
EC50 [1, 4]: 0.398 nM

melting point: > 250 °C
Compound: Cc1ccc(O)c(Cn2c(N)nc3ccc(Cn4c(=O)n(C5CC5)c5ccncc54)cc32)n1 [Compound 183]
EC50 ([1]; 168 h, Table 3b, RSV in HeLa cells, MTT, seven days after infection, pEC50 = -log of EC50 in molar units, read-out: Activity (converted)): 39.8 nM

melting point: 252 °C
Compound: Cc1cccc(NCc2cc(C)c3nc(N)n(Cc4nc(C)ccc4O)c3c2)c1 [Compound 194, 2-[2-amino-4-methyl-6-(m-tolylamino-methyl)-benzoimidazol-1-ylmethyl]-6-methyl-pyridin-3-ol]
EC50 [1, 3]: 12.6 nM

melting point: 191 °C
Compound: Cc1cccc(N(CCCO)Cc2ccc3nc(N)n(Cc4cccc5cccnc45)c3c2)c1 [Compound 205, 3-[(2-amino-3-quinolin-8-ylmethyl-3H-benzoimidazol-5-ylmethyl)-m-tolyl-amino]-propan-1-ol]
EC50 [1, 6]: 50.1 nM

melting point: 245 °C
Compound: Cc1ccc(O)c(Cn2c(N)nc3ccc(CN(CCC(N)=O)c4cccc(Br)c4)cc32)n1 [Compound 137, 3-[[2-Amino-3-(3-hydroxy-6-methyl-pyridin-2-ylmethyl)-3H-benzoimidazol-5-ylmethyl]-(3-bromo-phenyl)-amino]-propionamide]
EC50 [1, 4]: 0.251 nM

melting point: 184 °C
Compound: Cc1ccc(O)c(Cn2c(N)nc3ccc(CN(CCN4CCOCC4)c4ccccc4CCO)cc32)n1 [Compound 160, 2-(2-Amino-6-{[[2-(2-hydroxy-ethyl)-phenyl]-(2-morpholin-4-yl-ethyl)-amino]-methyl}-benzoimidazol-1-ylmethyl)-6-methyl-pyridin-3-ol]
EC50 [1, 4]: 7.94 nM

melting point: 165 °C
Compound: Cc1cccc(N(CCC(=O)O)Cc2ccc3nc(N)n(Cc4nc(C)ccc4O)c3c2)c1 [Compound 161, 3-{[2-amino-3-(3-hydroxy-6-methyl-pyridin-2-ylmethyl)-3H-benzoimidazol-5-ylmethyl]-m-tolyl-amino}-propionic acid]
EC50 [1, 4]: 7.94 nM

melting point: > 260 °C
Compound: Nc1nc2cc(CO)ccc2n1Cc1cccc2cccnc12 [Compound 224, (2-amino-1-quinolin-8-ylmethyl-1H-benzoimidazol-5-yl)-methanol]
EC50 [1, 6]: > 100000 nM
